Six molecules from patent US20070059376A1, “Peptide conjugate” (priority 2003, published 2007) can be followed below.

One data set deals with resting platelets. The experiment in a line: Binding test to resting platelets (flow cytometry aggregation ratio). The note with it: resting platelets 2.0×10^4/μl, beads 1.0×10^5/μl, 37° C., 30 min. Type of data set: cell-based. As for the experimental part:
Resting platelets (2.0×10^4/μl) were mixed with 1.0×10^5/μl of each of LB, H12-LB and CGGRGDF-LB [LB bound with a peptide having an RGD sequence (Arg-Gly-Asp)], followed by shaking (37° C., 30 min), and the aggregation ratio in each case was evaluated by flow cytometry. […] Based on this, it was confirmed that H12-LB hardly agglutinate to resting platelets when compared with CGGRGDF-LB.
For orientation: In flow cytometry, cells or beads pass a laser one at a time.

Data set [1] deals with T1, GPIIb/IIIa on resting platelets (UniProt P08514 32-1039; P05106 27-788, limits assumed).
T1 construct: whole, on cells; also called resting GPIIb/IIIa; normal platelets
The experiment in a line: flow cytometry, fluorescence-labeled antibody on platelets, PBS added.

Data set [2] concerns the target T1, GPIIb/IIIa on resting platelets. Nature of the data set: flow cytometry, fluorescence-labeled antibody on platelets, H12-PEG(PEG) vesicles added.
Data set [3] has the same target. Nature of the data set: flow cytometry, fluorescence-labeled antibody on platelets, PEG vesicles added.
In data set [4] the test system is platelets. Nature of the data set: Interaction with platelets, vesicles as carrier (flow cytometry, PAC-1 and vesicle binding). Type of data set: cell-based. The note with it: thrombocytopenia plasma, platelets 5.0×10^4/μl, 30 min, 37° C. On the procedure:
After 80 μl of thrombocytopenia plasma ([platelets]=5.0×10^4/μl) was prepared, fluorescence-labeled H12-PEG(PEG) vesicles (8.2 μM, 20 μl) or a fluorescence-labeled antibody and H12-PEG(PEG) vesicles (0.082 μM, 20 μl) were added thereto, followed by stirring (30 min, 37° C.). The mixture was subsequently subjected to formaldehyde (3.7%) fixation, diluted 10 times and then measured using flow cytometry.

Data set [5] concerns platelets. The experiment in a line: Aggregation test with platelets, vesicles as carrier: platelet adhesion on collagen surface under flow in thrombocytopenic blood. Type of data set: cell-based. As to conditions: for SC of platelets (%): thrombocytopenic blood, platelets 5.0×10^4/μl, collagen surface, shear 150 s^-1, H12-PEG-Glu2C18 0.3 mol %. On the procedure:
Platelets were fluorescence-labeled with DiOC6, and the H12-PEG(PEG) vesicle (1.5 wt %, 200 μl) was added to 5 ml of the thrombocytopenic blood ([platelets]=5.0×10^4/μl), allowed to stand (37° C., 10 min), allowed to flow on the collagen surface at a rate of shear of 150 s^−1, and then observed under a fluorescence microscope. The SC of platelets on the surface was analyzed by Argus-20. When H12-PEG vesicle (H12-PEG-Glu2C18: 0.3 mol %) or PEG vesicle was added to the thrombocytopenic blood ([platelets]=5.0×10^4/μl) and allowed to flow on the collagen surface, the SC was increased in the H12-PEG vesicle-added system, in comparison with the PEG vesicle-added system (Table 1).

Data set [6] can be described thus: Retention of H12-PEG-Glu2C18 in phospholipid vesicles (1H-NMR molar ratio after shaking). The data set is classed as physicochemical. As to conditions: diluted 30 times with PBS, shaken at 37° C. for 12 hours. On the procedure: In this connection, the prepared phospholipid vesicles (H12-PEG vesicles, 1.8 wt %) were diluted 30 times with PBS and shaken at 37° C. for 12 hours, and then the vesicles were precipitated by centrifugation (33000 rpm, 1 h) and dispersed, followed by freeze drying, and the resulting powder was subjected to ^1H-NMR measurement.

The subject of data set [7] is platelets activated by adhering to collagen. The experiment in a line: Adhesion behavior of FITC-labeled latex beads on collagen-immobilized surface under flow in thrombocytopenia model blood. Type of data set: cell-based. On the procedure:
(§1) A thrombocytopenia model blood was prepared by passing whole blood-through a leukocyte removing filter for leukocyte depleted preparations (NEOIJ, Nihon Pall) by gravity, and adjusting the platelet concentration to 2.0×10^4/μl by adding platelet rich plasma (PRP) (an automatic blood cell counter K-4500, Sysmex, Kobe).
(§2) H12-LB (1.0×10^5 particles/μl) was added to 5 ml of the thrombocytopenia model blood, allowed to stand (37° C., 10 min), flowed on a collagen-immobilized surface using a pump (rate of shear 150 s^−1), and then observed under a fluorescence microscope or through a CCD camera. An adhesion occupying ratio [surface coverage (hereinafter referred to as “SC”)] of micro particles to each surface was measured using an image analyzer (Argus-50, Hamamatsu Photonics).
In addition, the number of H12-LB bound to the surface was inhibited when the platelet concentration was 0.2×10^4/μl (FIG. 2: •), and were hardly seen in the case of LB (FIG. 2: □).

In data set [8] the test system is platelets. Nature of the data set: Aggregation test with platelets, latex beads as carrier: platelet adhesion on collagen-immobilized surface under flow in thrombocytopenia model blood. Type of data set: cell-based. The note with it: after 180 seconds. On the procedure: as §1, §2
Only platelets were subjected to fluorescence labeling [3,3′-dihexyloxacarbocyanine iodide (DiOC6)], and their adhesion behavior was periodically observed. As a result, SC of platelets on the surface increased with the lapse of time and was 3.1±0.4% after 180 seconds (FIG. 1: □, control). […] Thus, when H12-LB was added instead of LB, the platelet adhesion was further amplified than the case of the LB addition, and was 5.1±0.3% after 180 seconds, or amplified about 1.7 times than the control (FIG. 1: ∘).

Data set [9] concerns the target T1, GPIIb/IIIa on resting platelets. The experiment in a line: flow cytometry, beads (1.0×10^5/µl) mixed with resting platelets (2.0×10^4/µl), 37° C., 30 min. As for the experimental part:
Resting platelets (2.0×10⁴/μl) were mixed with 1.0×10⁵/μl of each of LB, H12-LB and CGGRGDF-LB [LB bound with a peptide having an RGD sequence (Arg-Gly-Asp)], followed by shaking (37° C., 30 min), and the aggregation ratio in each case was evaluated by flow cytometry. […] Based on this, it was confirmed that H12-LB hardly agglutinate to resting platelets when compared with CGGRGDF-LB.

Groups on a side chain read outwards from the residue. No end group written: not given here. Glu2C18 = not defined here

T1 sequence (P08514 32-1039 limits assumed, chain 1 of 2): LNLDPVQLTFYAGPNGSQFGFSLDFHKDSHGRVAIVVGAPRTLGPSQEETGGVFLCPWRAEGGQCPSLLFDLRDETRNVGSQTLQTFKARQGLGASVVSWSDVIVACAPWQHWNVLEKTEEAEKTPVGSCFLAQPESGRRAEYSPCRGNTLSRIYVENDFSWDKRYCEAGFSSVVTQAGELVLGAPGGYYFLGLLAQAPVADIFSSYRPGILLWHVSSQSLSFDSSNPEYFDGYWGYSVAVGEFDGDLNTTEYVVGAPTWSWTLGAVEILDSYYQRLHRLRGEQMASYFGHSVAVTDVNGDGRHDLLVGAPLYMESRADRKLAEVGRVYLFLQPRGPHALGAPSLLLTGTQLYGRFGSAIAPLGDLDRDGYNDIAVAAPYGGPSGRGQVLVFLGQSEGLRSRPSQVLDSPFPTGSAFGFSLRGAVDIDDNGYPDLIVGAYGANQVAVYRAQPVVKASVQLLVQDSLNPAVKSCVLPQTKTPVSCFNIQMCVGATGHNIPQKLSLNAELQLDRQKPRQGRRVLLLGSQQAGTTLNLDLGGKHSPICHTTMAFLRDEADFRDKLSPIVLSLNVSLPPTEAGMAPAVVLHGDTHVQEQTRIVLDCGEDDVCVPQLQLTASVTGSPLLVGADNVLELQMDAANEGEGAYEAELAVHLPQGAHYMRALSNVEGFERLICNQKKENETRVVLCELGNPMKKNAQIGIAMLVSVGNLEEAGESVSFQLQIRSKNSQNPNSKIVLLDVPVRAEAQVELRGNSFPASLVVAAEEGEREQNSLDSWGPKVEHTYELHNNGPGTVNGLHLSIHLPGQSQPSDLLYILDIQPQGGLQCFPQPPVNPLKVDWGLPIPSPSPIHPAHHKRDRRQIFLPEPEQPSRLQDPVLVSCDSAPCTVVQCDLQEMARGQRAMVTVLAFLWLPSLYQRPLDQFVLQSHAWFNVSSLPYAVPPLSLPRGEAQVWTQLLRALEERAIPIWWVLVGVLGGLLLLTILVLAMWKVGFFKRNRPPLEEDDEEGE
T1 sequence (P05106 27-788 limits assumed, chain 2 of 2): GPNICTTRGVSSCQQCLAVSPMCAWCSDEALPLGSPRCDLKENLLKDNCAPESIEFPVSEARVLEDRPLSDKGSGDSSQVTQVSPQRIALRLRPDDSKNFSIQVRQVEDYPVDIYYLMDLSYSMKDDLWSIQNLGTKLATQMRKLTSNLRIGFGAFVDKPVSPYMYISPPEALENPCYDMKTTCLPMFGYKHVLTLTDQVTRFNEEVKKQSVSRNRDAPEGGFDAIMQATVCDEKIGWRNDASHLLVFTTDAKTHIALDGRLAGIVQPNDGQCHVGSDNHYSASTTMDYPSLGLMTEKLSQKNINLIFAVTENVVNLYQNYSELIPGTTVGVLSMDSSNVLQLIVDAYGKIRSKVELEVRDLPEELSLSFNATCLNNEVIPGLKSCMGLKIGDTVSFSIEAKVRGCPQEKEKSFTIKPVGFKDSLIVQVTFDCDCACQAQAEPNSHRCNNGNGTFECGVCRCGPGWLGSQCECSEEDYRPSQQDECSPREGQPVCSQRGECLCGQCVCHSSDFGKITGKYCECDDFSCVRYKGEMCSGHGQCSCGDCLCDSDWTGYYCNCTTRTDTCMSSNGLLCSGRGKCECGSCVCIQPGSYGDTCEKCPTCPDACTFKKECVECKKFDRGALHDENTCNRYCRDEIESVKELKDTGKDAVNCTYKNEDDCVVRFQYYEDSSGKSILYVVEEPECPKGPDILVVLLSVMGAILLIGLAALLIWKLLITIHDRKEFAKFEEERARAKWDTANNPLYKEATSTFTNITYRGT

On to “CGGRGDF-LB: LB bound with a peptide having an RGD sequence (Arg-Gly-Asp) (also: bound to latex beads (LB)) [reference compound]”, for which the “aggregation ratio with resting platelets” value in the data set on resting platelets came to 2.9 ± 1.3%.

Take PAC-1 (antibody): the PAC-1 binding (%) in [1] worked out at 3.8%; in [2] it was 3.7%; in data set [3], 3.4%.

In the case of “H12-PEG(PEG) vesicle: DPPC/cholesterol vesicle containing PEG-Glu2C18 and H12-PEG-Glu2C18 (CHHLGGAKQAGDV-OH; not fully specified (residue 1))”, the “PAC-1 binding (%)” value in the data set on platelets [4] (fluorescence-labeled antibody with vesicles) is listed as 3.7 ± 0.4%. Further, the “vesicle binding (%)” value in the data set on platelets [4] (fluorescence-labeled vesicles) was 1.4 ± 0.6%. In addition, the “SC of platelets on collagen surface” value was “almost the same as the case of PEG vesicle” in the data set with platelets [5] (H12-PEG-Glu2C18 modification ratio 0.1 mol % or less (FIG. 6)) and “the effect appears” in the data set on platelets [5] (H12-PEG-Glu2C18 modification ratio 0.3 mol % or more (FIG. 6)). In the data set with platelets [5], the “SC of platelets (%)” value is given as 17.3 ± 1.9%.

Take “H12-PEG vesicle: DPPC/cholesterol vesicle containing H12-PEG-Glu2C18 alone (C([MAL‑PEG3400-Glu2C18])HHLGGAKQAGDV-OH; not fully specified; reading uncertain)”: the “stability: retention of H12-PEG-Glu2C18 in vesicles (molar ratio of DPPC, cholesterol and H12-PEG-Glu2C18)” value in data set [6] is on record as “not released from the phospholipid vesicles but stably maintained”. Besides, the “SC of platelets (%)” value in the data set on platelets [5] amounted to 15.0 ± 5.0%.

As for “H12-LB: Dodecapeptide H12 (SEQ ID NO: 1, via Cys and SPDP linker) coupled to rHSA-adsorbed latex beads of 1 μm diameter (CHHLGGAKQAGDV; cyclised or stapled)”, in data set [7] (platelet concentration 0.2×10^4/μl (FIG. 2)), the “number of beads bound to collagen surface” value is recorded as “inhibited”. For the same molecule, in [7] (platelets 2.0×10^4/μl, shear 150 s^-1 (FIG. 2)), the “SC of FITC-labeled beads bound to collagen surface” value was “gradually increased”. The “amplification of platelet adhesion versus control (LB)” value in the data set on platelets [8] is “about 1.7 times”. For the same molecule, the “SC (surface coverage) of platelets on collagen surface” value in the data set on platelets [8] (shear 150 s^-1, platelets 2.0×10^4/μl, beads 1.0×10^5 particles/μl, DiOC6-labeled platelets) came to 5.1±0.3%. Also, the “aggregation ratio with resting platelets” value in the data set on resting platelets was “did not show increase”.

For the molecule CGGRGDF (also: bound to latex beads, coupling chemistry not described, Comparison conjugate) [CGGRGDF-LB [LB bound with a peptide having an RGD sequence (Arg-Gly-Asp)]], the aggregation ratio in [9] is 2.9%.
